Assay results: PubChem BioAssay (NCI)
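Step 1: Grow cells in 96-well plates. Step 2: Expose to compound for 48 hours at 5 concentrations. Step 3: Interpolate endpoints linearly; if unreached, use highest concentration. GI50 is the concentration that inhibits growth by half. TGI: total growth inhibition.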

Experiments:
Assay in all cases: NCI tumour cell line growth inhibition, 48 h
[1] = test system: BT-549 breast
[2] = test system: RXF 393 renal
[3] = test system: UACC-62 melanoma
[4] = test system: SK-OV-3 ovarian
[5] = test system: NCI-H522 lung
[6] = test system: MCF7 breast
[7] = test system: RPMI-8226 leukemia
[8] = test system: KM12 colon
[9] = test system: TK-10 renal
[10] = test system: NCI-H460 lung
[11] = test system: OVCAR-4 ovarian
[12] = test system: SF-539 CNS
[13] = test system: ACHN renal
[14] = test system: OVCAR-5 ovarian
[15] = test system: HOP-62 NSCLC
[16] = test system: UO-31 renal
[17] = test system: EKVX NSCLC
[18] = test system: COLO 205 colon
[19] = test system: UACC-257 melanoma
[20] = test system: OVCAR-3 ovarian
[21] = test system: DU-145 prostate
[22] = test system: NCI-H226 lung
[23] = test system: SN12C renal
[24] = test system: U251 CNS
[25] = test system: MALME-3M melanoma
[26] = test system: HOP-92 NSCLC
[27] = test system: IGROV1 ovarian
[28] = test system: HCT-116 colon
[29] = test system: HT29 colon
[30] = test system: CCRF-CEM leukemia
[31] = test system: 786-0 renal
[32] = test system: A549 NSCLC
[33] = test system: MDA-MB-231 breast
[34] = test system: HS 578T breast
[35] = test system: SF-295 CNS
[36] = test system: MDA-MB-435
[37] = test system: MOLT-4 leukemia
[38] = test system: T-47D breast
[39] = test system: HCT-15 colon
[40] = test system: SNB-19 CNS
[41] = test system: SR leukemia
[42] = test system: OVCAR-8 ovarian
[43] = test system: NCI/ADR-RES ovarian
[44] = test system: M14 melanoma
[45] = test system: SNB-75 CNS
[46] = test system: HCC-2998 colon
[47] = test system: PC-3 prostate
[48] = test system: CAKI-1 renal
[49] = test system: SK-MEL-5 melanoma
[50] = test system: SW-620 colon
[51] = test system: A498 renal
[52] = test system: SF-268 CNS
[53] = test system: NCI-H23 lung
[54] = test system: K-562 leukemia
[55] = test system: LOX IMVI melanoma
[56] = test system: HL-60(TB) leukemia
[57] = test system: SK-MEL-2 melanoma
[58] = test system: SK-MEL-28 melanoma

O=C(Nc1ccc(-n2ccc3c(NC(=O)c4ccccc4)ncnc32)cc1)c1ccc(Cl)c(C(F)(F)F)c1
GI50 [1]: 15.1 µM | TGI [1]: 48.8 µM | GI50 [2]: 4.74 µM | TGI [2]: 15.4 µM | GI50 [3]: 0.947 µM | TGI [3]: 12.2 µM | GI50 [4]: 11.1 µM | TGI [4]: 25.5 µM | GI50 [5]: 3.02 µM | TGI [5]: 13.3 µM | GI50 [6]: 1.91 µM | TGI [6]: 15.6 µM | GI50 [7]: 1.63 µM | TGI [7]: 29 µM | GI50 [8]: 0.939 µM | TGI [8]: 7.71 µM | GI50 [9]: 5.17 µM | TGI [9]: 12.9 µM | GI50 [10]: 0.204 µM | TGI [10]: 4.8 µM | GI50 [11]: 2.63 µM | TGI [11]: 9.42 µM | GI50 [12]: 3.63 µM | TGI [12]: > 54.7 µM | GI50 [13]: 1.28 µM | TGI [13]: 15.2 µM | GI50 [14]: 3.87 µM | TGI [14]: 22.5 µM | GI50 [15]: 3.45 µM | TGI [15]: 11.2 µM | GI50 [16]: 7.13 µM | TGI [16]: 23.7 µM | GI50 [17]: 5.66 µM | TGI [17]: 25.4 µM | GI50 [18]: 2.46 µM | TGI [18]: 17.2 µM | GI50 [19]: 5.17 µM | TGI [19]: 24.5 µM | GI50 [20]: 3.44 µM | TGI [20]: 9.37 µM | GI50 [21]: 1.48 µM | TGI [21]: 8.46 µM | GI50 [22]: 6.58 µM | TGI [22]: 25.1 µM | GI50 [23]: 3.8 µM | TGI [23]: 16.5 µM | GI50 [24]: 0.462 µM | TGI [24]: 5.75 µM | GI50 [25]: 6.41 µM | TGI [25]: 21.2 µM | GI50 [26]: 8.16 µM | TGI [26]: 25.7 µM | GI50 [27]: 5.81 µM | TGI [27]: 31 µM | GI50 [28]: 0.536 µM | TGI [28]: 7.26 µM | GI50 [29]: 0.752 µM | TGI [29]: 6.16 µM | GI50 [30]: 0.849 µM | TGI [30]: 18.2 µM | GI50 [31]: 5.02 µM | TGI [31]: 23.6 µM | GI50 [32]: 1.84 µM | TGI [32]: 12.6 µM | GI50 [33]: 1.93 µM | TGI [33]: 11.5 µM | GI50 [34]: 4.96 µM | TGI [34]: 15.6 µM | GI50 [35]: 1.91 µM | TGI [35]: 20 µM | GI50 [36]: 2.12 µM | TGI [36]: 10.3 µM | GI50 [37]: 1.38 µM | TGI [37]: > 32 µM | GI50 [38]: 2.9 µM | TGI [38]: 13.8 µM | GI50 [39]: 0.116 µM | TGI [39]: 6.77 µM | GI50 [40]: 4.21 µM | TGI [40]: 17.8 µM | GI50 [41]: 0.145 µM | TGI [41]: > 20.1 µM | GI50 [42]: 2.1 µM | GI50 [43]: 3.1 µM | TGI [43]: 23.5 µM | GI50 [44]: 1.37 µM | TGI [44]: 9.47 µM | GI50 [45]: 1.55 µM | TGI [45]: 11.4 µM | GI50 [46]: 4.5 µM | TGI [46]: 23.5 µM | GI50 [47]: 3.57 µM | TGI [47]: 14.7 µM | GI50 [48]: 0.83 µM | TGI [48]: 11.1 µM | GI50 [49]: 0.603 µM | TGI [49]: 15.1 µM | GI50 [50]: 1.29 µM | TGI [50]: 6.21 µM | GI50 [51]: 13 µM | TGI [51]: 29.4 µM | GI50 [52]: 2.17 µM | TGI [52]: 15.2 µM | GI50 [53]: 13.1 µM | TGI [53]: 40.7 µM | GI50 [54]: 0.42 µM | TGI [54]: > 35 µM | GI50 [55]: 0.321 µM | TGI [55]: 3.71 µM | GI50 [56]: 4.99 µM | TGI [56]: > 52.8 µM | GI50 [57]: 2.36 µM | TGI [57]: 8.68 µM | GI50 [58]: 4.9 µM | TGI [58]: 15.3 µM
